Common to all, as to assay: DTP human tumour cell line panel, 48 h
The test system of assay [1] is RPMI-8226.
Assay [2] deals with TK-10.
Assay [3] relates to M14.
Assay [4] relates to SF-295.
In assay [5] the test system is 786-0.
Assay [6] concerns SK-MEL-5.
The test system of assay [7] is ACHN.
Assay [8] has as its system SR.
For assay [9], the system named is Malme-3M.
For assay [10], the system named is Hs-578T.
For assay [11], the system named is A498.
Assay [12] relates to MDA-MB-231.
In assay [13] the test system is PC-3.
The test system of assay [14] is HOP-62.
For assay [15], the system named is EKVX.
Assay [16] has as its system A549.
Assay [17] concerns SNB-75.
For assay [18], the system named is SK-OV-3.
Assay [19] has as its system NCI-H460.
The subject of assay [20] is DU-145.

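96-well plates; 48 h exposure; 5 concentrations. Endpoints by linear interpolation between flanking doses. Not reached: highest tested concentration assigned. Here, GI50 denotes the concentration required for 50% inhibition of growth.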 Calls of active or inactive are those of the source. Cut-off read from the data, not from the text of the source: active = GI50 up to about 1.1 µM and inactive = higher.

One may read the GI50 as the concentration at which growth is held to half of that of the control.

As for `CC[C@](O)(CC(=O)O[C@H]1C(=O)O[C@@H]2C[C@H]3C(C)=CC(=O)[C@@H](O)[C@]3(C)[C@H]3[C@@]4(O)OC[C@]32[C@@H]1[C@@H](C)[C@H]4O)C(C)C`, the GI50 in assay [1], in [2], in assay [3], in assay [4], in assay [5] and in assay [6] was < 0.01 µM (active) in each case. Besides, the GI50 in assay [7], in assay [8], in assay [9], in assay [10], in assay [11] and in assay [12] was < 0.01 µM (active) in each case. The GI50 in assay [13], in [14], in [15], in assay [16], in assay [17] and in [18] was < 0.01 µM (active) each time. Moreover, the GI50 in assay [19] and in [20] was < 0.01 µM (active) in each case.
With `OCc1ccc(-c2ccc(-c3ccc(CO)s3)o2)s1`, the GI50 is 2.99 µM (inactive) in assay [1]; 0.0249 µM (active) in assay [2]; 30 µM (inactive) in [3]; 7.4 µM (inactive) in [4]; 4.6 µM (inactive) in assay [5]; 20.7 µM (inactive) in assay [6]. In addition, the GI50 in assay [7] is 11.3 µM (inactive); in [8], 3.6 µM (inactive); in assay [9], 57 µM (inactive); in assay [10], 27.7 µM (inactive); in assay [11], 0.0151 µM (active); in assay [12], 41.4 µM (inactive). For the same molecule, the GI50 in assay [13] is 44.5 µM (inactive); in assay [14], 0.103 µM (active); in [15], 26.3 µM (inactive); in assay [16] it was 2.36 µM (inactive); in assay [17], 36.6 µM (inactive); in assay [18], 7.06 µM (inactive). Also, the GI50 in assay [19] was 0.0557 µM (active); in assay [20], 6.07 µM (inactive).
In the case of `O=C(O)c1ccc2[nH]c(=O)oc2c1`, the GI50 in [1], in assay [2], in [3], in [4], in assay [5] and in assay [7] was > 100 µM (inactive) in each case. Moreover, the GI50 in assay [8], in [9], in [10], in [11], in [12] and in assay [13] was > 100 µM (inactive) in each case. In addition, the GI50 in assay [14], in assay [15], in assay [17], in assay [18], in assay [19] and in assay [20] was > 100 µM (inactive) throughout.
Take `CCC(=O)Nc1ncnc2ncn(C(=O)CC)c12`: the GI50 in assay [1], in [2], in [3], in assay [4], in assay [5] and in assay [7] was > 100 µM (inactive) in each case. Moreover, the GI50 in [8], in assay [9], in assay [10], in [11], in assay [12] and in [13] was > 100 µM (inactive) throughout. In addition, the GI50 in assay [14], in assay [15], in assay [16], in assay [17], in assay [18] and in assay [19] was > 100 µM (inactive) throughout. Besides, in assay [20], the GI50 was > 100 µM (inactive).
For `COC1=CC(=O)C(O)=C(C[C@@]2(C)[C@@H]3CCC[C@H](COC(=O)CCCCCNC(=O)OC(C)(C)C)[C@@]3(C)CC[C@@H]2C)C1=O`, the GI50 is 3.54 µM (inactive) in assay [1]; > 10 µM (inactive) in assay [2]; 6.56 µM (inactive) in [3]; 5.28 µM (inactive) in assay [4]; > 10 µM (inactive) in assay [5]; 3.77 µM (inactive) in [6]. In addition, the GI50 in [7] was 3.32 µM (inactive); in [8] it was 5.22 µM (inactive); in assay [9] it was 5.9 µM (inactive); in [10], 4.52 µM (inactive); in assay [11], > 10 µM (inactive); in [12], > 10 µM (inactive). Moreover, the GI50 in assay [13] was > 10 µM (inactive); in [14], 5.08 µM (inactive); in [15] it was 8.28 µM (inactive); in assay [16], 3.59 µM (inactive); in assay [17], 5.11 µM (inactive); in assay [18], > 10 µM (inactive). Besides, the GI50 in assay [20] was > 10 µM (inactive).
Regarding `CSc1nc(=S)[nH]c2[nH]nc(C)c12`, the GI50 in [1] was > 100 µM (inactive); in [2], > 100 µM (inactive); in [3] it was > 100 µM (inactive); in [5] it was > 100 µM (inactive); in assay [6], > 100 µM (inactive); in [8], 94.4 µM (inactive). In addition, the GI50 in [9] was > 100 µM (inactive); in [10] it was > 100 µM (inactive); in assay [11], 73.3 µM (inactive); in assay [12] it was > 100 µM (inactive); in assay [13] it was > 100 µM (inactive); in [15], > 100 µM (inactive). For the same molecule, the GI50 in assay [16], in [17], in assay [18], in [19] and in [20] was > 100 µM (inactive) throughout.
Turning to `CC1=NN(c2cc(Cl)c(S(=O)(=O)O)cc2Cl)C2(C1)C(Cl)C(=O)N2c1nc2ccccc2s1` (configuration not stated), the GI50 was 79.3 µM (inactive) in [1]; 68.5 µM (inactive) in assay [2]; > 100 µM (inactive) in assay [3]; > 100 µM (inactive) in assay [5]; > 100 µM (inactive) in assay [6]; > 100 µM (inactive) in assay [7]. Besides, the GI50 in assay [8] is 89.9 µM (inactive); in [9] it was > 100 µM (inactive); in [10] it was > 100 µM (inactive); in [11], 80 µM (inactive); in assay [12], 42.6 µM (inactive); in [13], 27.8 µM (inactive). Besides, the GI50 was 44.9 µM (inactive) in assay [15]; > 100 µM (inactive) in [16]; > 100 µM (inactive) in assay [17]; > 100 µM (inactive) in [19]; 29.3 µM (inactive) in [20].
With `COc1ccc(C2SCC(=O)N2NC(=O)C(C)Oc2ccccc2Cl)cc1` (configuration not stated), the GI50 in [1] was 32.4 µM (inactive); in assay [2], 63.2 µM (inactive); in assay [3], 41.9 µM (inactive); in assay [4], 45 µM (inactive); in assay [5], 98.6 µM (inactive); in assay [6], 24.5 µM (inactive). Besides, the GI50 in assay [7] was 38.5 µM (inactive); in [8], 26.1 µM (inactive); in [10], > 100 µM (inactive); in assay [11], 28.1 µM (inactive); in assay [12], 26.9 µM (inactive); in assay [13] it was 33.7 µM (inactive). In addition, the GI50 was 83.2 µM (inactive) in [15]; 35.5 µM (inactive) in [16]; 56.6 µM (inactive) in [17]; 70.1 µM (inactive) in assay [19]; 94.8 µM (inactive) in assay [20].

These data come from ChEMBL document CHEMBL1201862, “PubChem BioAssay data set” (2004).
